Experimental data published in ChEMBL document CHEMBL1146789, “(+/-)8-Amino-5,6,7,8-tetrahydroisoquinolines as novel antinociceptive agents” (Bioorg Med Chem Lett, 2004).
Calls of active or inactive are those of the source. The rule behind the calls is not given here.

Key:
Mus musculus [1] = experiment: Antinociceptive action was determined by tail-flick assay in mouse administered intrathecally at a dose of 20-25 ug; assay type: functional
Mus musculus [2] = experiment: Antinociceptive action was determined by tail-flick assay in mouse administered subcutaneously at a dose of 10 mg/kg; assay type: functional; conditions: route subcutaneous
Mus musculus [3] = experiment: Antinociceptive action was determined by hotplate assay in mouse administered subcutaneously; assay type: functional; conditions: sc
[4] = target: T1, Neuronal acetylcholine receptor; alpha4/beta2 (Homo sapiens, UniProt P17787+P43681); experiment: Affinity for nicotinic acetylcholine receptor alpha4-beta2; assay type: protein-complex assay
T1 sequence (P17787 whole entry): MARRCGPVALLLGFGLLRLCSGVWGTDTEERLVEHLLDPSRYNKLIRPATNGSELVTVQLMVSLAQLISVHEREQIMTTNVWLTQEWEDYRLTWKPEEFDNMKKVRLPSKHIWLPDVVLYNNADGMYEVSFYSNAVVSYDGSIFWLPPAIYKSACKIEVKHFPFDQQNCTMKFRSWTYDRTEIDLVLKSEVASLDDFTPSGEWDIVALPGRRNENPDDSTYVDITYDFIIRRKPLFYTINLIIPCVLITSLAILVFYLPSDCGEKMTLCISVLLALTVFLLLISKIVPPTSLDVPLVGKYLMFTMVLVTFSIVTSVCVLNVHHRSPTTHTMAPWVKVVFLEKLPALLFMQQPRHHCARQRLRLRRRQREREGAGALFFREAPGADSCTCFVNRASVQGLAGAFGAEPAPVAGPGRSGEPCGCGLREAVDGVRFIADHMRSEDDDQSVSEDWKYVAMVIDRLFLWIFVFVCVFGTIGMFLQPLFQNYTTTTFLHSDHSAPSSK
T1 sequence (P43681 whole entry): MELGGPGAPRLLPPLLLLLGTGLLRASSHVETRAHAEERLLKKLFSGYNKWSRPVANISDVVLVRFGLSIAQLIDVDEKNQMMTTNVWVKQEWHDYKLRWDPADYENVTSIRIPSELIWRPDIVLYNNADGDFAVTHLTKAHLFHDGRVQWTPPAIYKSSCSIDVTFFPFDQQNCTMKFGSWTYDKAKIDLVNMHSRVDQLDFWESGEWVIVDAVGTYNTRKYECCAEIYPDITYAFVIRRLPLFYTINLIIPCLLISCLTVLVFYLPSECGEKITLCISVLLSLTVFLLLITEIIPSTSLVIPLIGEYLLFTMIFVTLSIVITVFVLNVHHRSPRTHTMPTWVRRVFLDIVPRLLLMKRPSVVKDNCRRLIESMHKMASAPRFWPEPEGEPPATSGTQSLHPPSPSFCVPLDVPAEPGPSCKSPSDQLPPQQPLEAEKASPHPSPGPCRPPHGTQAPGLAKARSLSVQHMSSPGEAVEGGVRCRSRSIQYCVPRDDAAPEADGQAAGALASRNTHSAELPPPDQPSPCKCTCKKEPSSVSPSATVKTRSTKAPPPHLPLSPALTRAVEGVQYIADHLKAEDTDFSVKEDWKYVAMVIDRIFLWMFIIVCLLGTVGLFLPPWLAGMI

Mus musculus [5] = organism: Mus musculus; experiment: Antinociceptive action was determined; P- Possess activity; assay type: functional, organism-based
[6] = target: T1, Neuronal acetylcholine receptor; alpha4/beta2; experiment: Affinity for nicotinic acetylcholine receptor alpha4-beta2; NA = Not active; assay type: protein-complex assay
Mus musculus [7] = experiment: Antinociceptive action was determined by hotplate assay in mouse administered subcutaneously at a dose of 10 mg/kg; assay type: functional; conditions: route subcutaneous
Mus musculus [8] = experiment: Antinociceptive action was determined by tail-flick assay in mouse administered intrathecally; assay type: functional; conditions: central
Mus musculus [9] = experiment: Antinociceptive action was determined by tail-flick assay in mouse administered subcutaneously; assay type: functional; conditions: sc
[10] = target: 5-hydroxytryptamine receptor 1A (Homo sapiens, UniProt P08908); experiment: Affinity towards human 5-hydroxytryptamine 1A serotonin receptor
[11] = target: 5-hydroxytryptamine receptor 1B (Homo sapiens, UniProt P28222); experiment: Affinity towards human 5-hydroxytryptamine 1B serotonin receptor
[12] = target: 5-hydroxytryptamine receptor 2B (Homo sapiens, UniProt P41595); experiment: Affinity towards human 5-hydroxytryptamine 2B serotonin receptor
[13] = target: Serotonin 3 (5-HT3) receptor; experiment: Affinity towards human 5-hydroxytryptamine 3 serotonin receptor; assay type: protein-complex assay
[14] = target: 5-hydroxytryptamine receptor 2C (Homo sapiens, UniProt P28335); experiment: Affinity towards human 5-hydroxytryptamine 2C serotonin receptor
[15] = target: 5-hydroxytryptamine receptor 6 (Homo sapiens, UniProt P50406); experiment: Affinity towards human 5-hydroxytryptamine 6 serotonin receptor
Chain of 5-hydroxytryptamine receptor 6 (P50406 whole entry): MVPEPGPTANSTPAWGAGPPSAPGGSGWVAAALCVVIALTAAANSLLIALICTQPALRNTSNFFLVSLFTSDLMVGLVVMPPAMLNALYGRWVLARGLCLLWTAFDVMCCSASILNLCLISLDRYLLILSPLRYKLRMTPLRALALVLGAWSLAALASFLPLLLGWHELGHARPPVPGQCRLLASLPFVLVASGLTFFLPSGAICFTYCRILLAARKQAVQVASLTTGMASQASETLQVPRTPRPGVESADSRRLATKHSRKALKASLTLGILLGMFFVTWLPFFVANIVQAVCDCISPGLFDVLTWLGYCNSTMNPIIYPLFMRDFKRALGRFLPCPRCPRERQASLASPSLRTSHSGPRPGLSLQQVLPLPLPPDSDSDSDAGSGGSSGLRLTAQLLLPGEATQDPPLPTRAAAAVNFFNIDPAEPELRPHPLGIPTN

[16] = target: 5-hydroxytryptamine receptor 5A (Homo sapiens, UniProt P47898); experiment: Affinity towards human 5-hydroxytryptamine 5A serotonin receptor
Chain of 5-hydroxytryptamine receptor 5A (P47898 whole entry): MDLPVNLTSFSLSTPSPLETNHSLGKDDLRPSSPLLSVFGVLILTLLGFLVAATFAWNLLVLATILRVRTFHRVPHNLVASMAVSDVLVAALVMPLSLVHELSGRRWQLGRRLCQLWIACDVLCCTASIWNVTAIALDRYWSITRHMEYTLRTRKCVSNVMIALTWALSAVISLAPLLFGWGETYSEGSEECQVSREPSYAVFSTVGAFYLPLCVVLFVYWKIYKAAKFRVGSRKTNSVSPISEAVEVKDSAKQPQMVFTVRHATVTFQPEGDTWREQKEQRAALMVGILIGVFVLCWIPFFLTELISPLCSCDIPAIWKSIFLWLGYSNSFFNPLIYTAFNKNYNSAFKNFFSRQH

[17] = target: 5-hydroxytryptamine receptor 7 (Homo sapiens, UniProt P34969); experiment: Affinity towards human 5-hydroxytryptamine 7 serotonin receptor
Chain of 5-hydroxytryptamine receptor 7 (P34969 whole entry): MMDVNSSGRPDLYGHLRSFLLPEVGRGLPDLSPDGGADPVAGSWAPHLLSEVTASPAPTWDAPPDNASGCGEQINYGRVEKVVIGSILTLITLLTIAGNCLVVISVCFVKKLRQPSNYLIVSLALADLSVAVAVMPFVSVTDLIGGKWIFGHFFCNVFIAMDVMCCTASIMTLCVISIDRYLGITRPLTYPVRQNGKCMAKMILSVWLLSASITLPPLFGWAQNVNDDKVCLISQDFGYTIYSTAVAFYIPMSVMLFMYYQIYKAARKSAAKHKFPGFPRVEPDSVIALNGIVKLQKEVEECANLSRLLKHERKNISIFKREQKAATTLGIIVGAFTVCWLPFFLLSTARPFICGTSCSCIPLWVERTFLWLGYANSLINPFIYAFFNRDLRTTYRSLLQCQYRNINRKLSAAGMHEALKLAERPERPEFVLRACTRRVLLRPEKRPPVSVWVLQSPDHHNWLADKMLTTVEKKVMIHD

Adenosine receptor A1 = Adenosine receptor A1 (Homo sapiens, UniProt P30542); experiment: Affinity towards human adenosine A1 receptor
Chain of Adenosine receptor A1 (P30542 whole entry): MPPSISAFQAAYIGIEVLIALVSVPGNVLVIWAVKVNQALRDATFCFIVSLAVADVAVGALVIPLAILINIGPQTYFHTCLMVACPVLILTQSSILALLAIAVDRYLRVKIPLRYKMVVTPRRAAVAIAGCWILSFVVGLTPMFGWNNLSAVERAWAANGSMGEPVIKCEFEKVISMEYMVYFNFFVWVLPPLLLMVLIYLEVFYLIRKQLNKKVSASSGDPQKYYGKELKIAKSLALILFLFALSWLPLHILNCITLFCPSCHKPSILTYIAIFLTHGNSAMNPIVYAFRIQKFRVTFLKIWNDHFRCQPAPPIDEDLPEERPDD

[18] = target: Adrenergic receptor alpha-2 (Homo sapiens, UniProt P08913+P18825+P18089); experiment: Affinity towards alpha-2 adrenergic receptor; assay type: protein assay
Adenosine receptor A3 = Adenosine receptor A3 (Homo sapiens, UniProt P0DMS8); experiment: Affinity towards human adenosine A3 receptor
Adenosine A2 receptor = Adenosine A2 receptor (Homo sapiens, UniProt P29275+P29274); experiment: Affinity towards human adenosine A2 receptor; assay type: protein assay
[19] = target: Adrenergic receptor alpha-1 (Homo sapiens, UniProt P35348+P25100+P35368); experiment: Affinity towards alpha-1 adrenergic receptor; assay type: protein assay
[20] = target: Beta-2 adrenergic receptor (Homo sapiens, UniProt P07550); experiment: Affinity towards human beta-2 adrenergic receptor
[21] = target: GABA-A receptor; anion channel; experiment: Binding affinity for GABA-A central benzodiazepine receptor; assay type: protein-complex assay
Translocator protein = Translocator protein (Homo sapiens, UniProt P30536); experiment: Binding affinity for peripheral benzodiazepine receptor
Chain of Translocator protein (P30536 whole entry): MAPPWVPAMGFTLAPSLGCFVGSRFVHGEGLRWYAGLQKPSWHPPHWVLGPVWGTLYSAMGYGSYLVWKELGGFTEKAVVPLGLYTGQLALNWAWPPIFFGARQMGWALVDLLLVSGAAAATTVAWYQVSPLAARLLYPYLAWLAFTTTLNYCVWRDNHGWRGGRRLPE

[22] = Binding towards calcium channel(Ca++); NA- Not active
[23] = Binding towards chloride channel(Cl-); NA = Not active
D(2) dopamine receptor = D(2) dopamine receptor (Homo sapiens, UniProt P14416); experiment: Affinity towards human dopamine receptor D2
Chain of D(2) dopamine receptor (P14416 whole entry): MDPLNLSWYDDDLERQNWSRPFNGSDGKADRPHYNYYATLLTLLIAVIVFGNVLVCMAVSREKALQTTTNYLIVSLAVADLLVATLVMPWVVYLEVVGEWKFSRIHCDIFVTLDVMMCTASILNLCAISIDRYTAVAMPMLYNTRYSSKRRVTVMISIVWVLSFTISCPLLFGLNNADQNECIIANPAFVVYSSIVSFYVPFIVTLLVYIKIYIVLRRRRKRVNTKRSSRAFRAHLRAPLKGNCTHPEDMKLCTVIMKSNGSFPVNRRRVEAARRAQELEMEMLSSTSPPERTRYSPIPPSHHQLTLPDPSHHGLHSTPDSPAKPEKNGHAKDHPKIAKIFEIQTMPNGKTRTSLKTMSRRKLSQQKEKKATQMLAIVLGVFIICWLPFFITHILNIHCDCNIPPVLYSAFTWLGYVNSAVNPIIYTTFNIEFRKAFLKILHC

[24] = target: Sodium-dependent dopamine transporter (Homo sapiens) (UniProt Q01959); experiment: Binding towards dopamine transporter; NA- Not active
D(1A) dopamine receptor = D(1A) dopamine receptor (Homo sapiens, UniProt P21728); experiment: Affinity towards human Dopamine receptor D1
D(4) dopamine receptor = D(4) dopamine receptor (Homo sapiens, UniProt P21917); experiment: Affinity towards human dopamine receptor D4
D(3) dopamine receptor = D(3) dopamine receptor (Homo sapiens, UniProt P35462); experiment: Affinity towards human dopamine receptor D3
Histamine H1 receptor = Histamine H1 receptor (Homo sapiens, UniProt P35367); experiment: Affinity towards histamine H1 receptor
Histamine H2 receptor = Histamine H2 receptor (Homo sapiens, UniProt P25021); experiment: Affinity towards histamine H2 receptor
[25] = target: Sodium-dependent noradrenaline transporter (Homo sapiens) (UniProt P23975); experiment: Binding towards norepinephrine transporter; NA= Not active
Chain of Sodium-dependent noradrenaline transporter (Homo sapiens) (P23975 whole entry): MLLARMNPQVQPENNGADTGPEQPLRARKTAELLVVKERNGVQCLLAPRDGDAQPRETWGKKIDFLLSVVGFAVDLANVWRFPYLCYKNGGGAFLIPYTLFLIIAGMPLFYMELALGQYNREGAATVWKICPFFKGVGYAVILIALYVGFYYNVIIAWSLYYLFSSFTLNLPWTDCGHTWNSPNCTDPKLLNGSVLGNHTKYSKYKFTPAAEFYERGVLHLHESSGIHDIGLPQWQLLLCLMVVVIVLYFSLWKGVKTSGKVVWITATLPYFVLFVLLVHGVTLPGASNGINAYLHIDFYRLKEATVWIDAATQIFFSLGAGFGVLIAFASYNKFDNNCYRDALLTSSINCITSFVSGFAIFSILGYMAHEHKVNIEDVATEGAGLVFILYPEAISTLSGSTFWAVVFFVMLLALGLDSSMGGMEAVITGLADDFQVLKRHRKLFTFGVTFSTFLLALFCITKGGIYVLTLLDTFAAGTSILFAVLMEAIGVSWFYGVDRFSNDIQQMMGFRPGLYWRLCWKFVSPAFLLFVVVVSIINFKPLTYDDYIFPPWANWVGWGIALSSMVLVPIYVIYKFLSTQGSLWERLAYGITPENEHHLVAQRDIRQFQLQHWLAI

[26] = target: Muscarinic acetylcholine receptor M5 (Homo sapiens, UniProt P08912); experiment: Affinity towards human Muscarinic acetylcholine receptor M5
[27] = target: Muscarinic acetylcholine receptor M3 (Homo sapiens, UniProt P20309); experiment: Affinity towards human muscarinic acetylcholine receptor M3
Chain of Muscarinic acetylcholine receptor M3 (P20309 whole entry): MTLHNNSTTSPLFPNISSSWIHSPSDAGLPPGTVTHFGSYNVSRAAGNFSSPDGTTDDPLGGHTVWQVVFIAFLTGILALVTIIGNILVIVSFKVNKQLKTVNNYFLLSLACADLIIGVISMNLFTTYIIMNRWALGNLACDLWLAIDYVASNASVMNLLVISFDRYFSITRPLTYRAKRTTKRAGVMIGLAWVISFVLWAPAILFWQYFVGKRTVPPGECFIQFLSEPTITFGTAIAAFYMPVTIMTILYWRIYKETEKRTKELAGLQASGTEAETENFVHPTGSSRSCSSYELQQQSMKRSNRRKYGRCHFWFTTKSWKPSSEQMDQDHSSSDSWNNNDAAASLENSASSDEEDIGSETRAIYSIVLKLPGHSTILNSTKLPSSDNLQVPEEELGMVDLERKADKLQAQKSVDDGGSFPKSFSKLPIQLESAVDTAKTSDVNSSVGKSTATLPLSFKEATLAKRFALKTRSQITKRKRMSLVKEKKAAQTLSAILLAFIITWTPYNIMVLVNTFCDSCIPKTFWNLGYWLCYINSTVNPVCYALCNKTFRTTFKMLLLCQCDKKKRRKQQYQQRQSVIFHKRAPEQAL

[28] = target: Muscarinic acetylcholine receptor M2 (Homo sapiens, UniProt P08172); experiment: Affinity towards human muscarinic acetylcholine receptor M2
[29] = target: Muscarinic acetylcholine receptor M4 (Homo sapiens, UniProt P08173); experiment: Affinity towards human Muscarinic acetylcholine receptor M4
[30] = target: Kappa-type opioid receptor (Homo sapiens, UniProt P41145); experiment: Affinity towards kappa opioid receptor
Chain of Kappa-type opioid receptor (P41145 whole entry): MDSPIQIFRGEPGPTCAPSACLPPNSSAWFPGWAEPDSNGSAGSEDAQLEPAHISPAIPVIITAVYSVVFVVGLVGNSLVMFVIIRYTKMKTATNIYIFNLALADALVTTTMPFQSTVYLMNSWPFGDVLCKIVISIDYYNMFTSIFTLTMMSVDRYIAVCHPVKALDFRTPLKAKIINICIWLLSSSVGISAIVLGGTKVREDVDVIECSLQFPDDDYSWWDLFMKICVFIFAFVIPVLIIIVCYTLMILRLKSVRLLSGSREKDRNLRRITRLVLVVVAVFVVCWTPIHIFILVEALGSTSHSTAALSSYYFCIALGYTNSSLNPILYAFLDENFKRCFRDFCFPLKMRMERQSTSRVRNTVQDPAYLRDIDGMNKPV

[31] = target: Delta-type opioid receptor (Homo sapiens, UniProt P41143); experiment: Affinity towards opioid receptor delta 1
Mu-type opioid receptor = Mu-type opioid receptor (Homo sapiens, UniProt P35372); experiment: Affinity towards opioid receptor mu 1
[32] = target: A-type voltage-gated potassium channel KCND3 (Homo sapiens, UniProt Q9UK17); experiment: Binding towards potassium channel(K+); NA = Not active
[33] = Binding towards sodium channel(Na+); NA = Not active
[34] = target: Muscarinic acetylcholine receptor M1 (Homo sapiens, UniProt P11229); experiment: Affinity towards human muscarinic acetylcholine receptor M1
D(1B) dopamine receptor = D(1B) dopamine receptor (Homo sapiens, UniProt P21918); experiment: Affinity towards human dopamine receptor D5

Structure (SMILES): CN(C)C1CCCc2ccncc21 (stereo not given)
- MPE (Mus musculus [1]): 8%
- MPE (Mus musculus [2]): 2%
- ED50 (Mus musculus [3]): 3.9 mg/kg
- Ki [4]: 0.33 µM

Structure (SMILES): COc1cc2c(cn1)C1NCCC1CC2 (stereo not given)
- Activity (Mus musculus [5]): Active
- Ki [6]: Not Active

Structure (SMILES): CCCNC1CCCc2ccncc21 (stereo not given)
- Ki [4]: > 10 µM

Structure (SMILES): c1cc2c(cn1)C(N1CCCC1)CCC2 (stereo not given)
- MPE (Mus musculus [7]): 11%
- MPE (Mus musculus [1]): 6%
- MPE (Mus musculus [2]): 2%
- Ki [4]: > 10 µM

Structure (SMILES): CN1CCC[C@H]1c1cccnc1 [NICOTINE]
- ED50 (Mus musculus [3]): 0.5 mg/kg
- ED50 (Mus musculus [8]): 12 µg/mouse
- ED50 (Mus musculus [9]): 1.5 mg/kg

Structure (SMILES): CCCN(C)C1CCCc2ccncc21 (stereo not given)
- Ki [4]: > 10 µM

Structure (SMILES): NC1CCCc2ccncc21 (stereo not given)
- MPE (Mus musculus [7]): 10%
- MPE (Mus musculus [2]): 1%
- Ki [4]: > 10 µM

Structure (SMILES): CNC1CCCc2ccncc21 (stereo not given)
- MPE (Mus musculus [7]): 2%
- MPE (Mus musculus [2]): 0%
- ED50 (Mus musculus [8]): 13 µg/mouse
- Ki [4]: > 10 µM

Structure (SMILES): CN1CCC2CCc3ccncc3C21 (stereo not given)
- Activity (Mus musculus [5]): Active
- Ki [6]: Not Active

Structure (SMILES): CCN(C)C1CCCc2ccncc21.O=C(O)/C=C\C(=O)O.O=C(O)/C=C\C(=O)O (stereo not given)
- Ki [10]: > 10 µM
- Ki [11]: > 10 µM
- Ki [12]: > 10 µM
- Ki [13]: > 10 µM
- Ki [14]: > 10 µM
- Ki [15]: > 10 µM
- Ki [16]: > 10 µM
- Ki [17]: > 10 µM
- Ki (Adenosine receptor A1): > 10 µM
- Ki [18]: > 10 µM
- Ki (Adenosine receptor A3): > 10 µM
- Ki (Adenosine A2 receptor): > 10 µM
- Ki [19]: > 10 µM
- Ki [20]: > 10 µM
- Ki [21]: > 10 µM
- Ki (Translocator protein): > 10 µM
- Activity [22]: inactive
- Activity [23]: inactive
- Ki (D(2) dopamine receptor): > 10 µM
- Activity [24]: inactive
- Ki (D(1A) dopamine receptor): > 10 µM
- Ki (D(4) dopamine receptor): > 10 µM
- Ki (D(3) dopamine receptor): > 10 µM
- Ki (Histamine H1 receptor): > 10 µM
- Ki (Histamine H2 receptor): > 10 µM
- ED50 (Mus musculus [3]): 0.2 mg/kg
- ED50 (Mus musculus [8]): 12 µg/mouse
- ED50 (Mus musculus [9]): 0.6 mg/kg
- Activity [25]: inactive
- Ki [26]: > 10 µM
- Ki [27]: > 10 µM
- Ki [28]: > 10 µM
- Ki [29]: > 10 µM
- Ki [30]: > 10 µM
- Ki [31]: > 10 µM
- Ki (Mu-type opioid receptor): > 10 µM
- Activity [32]: Not Active
- Activity [33]: inactive
- Ki [34]: > 10 µM
- Ki (D(1B) dopamine receptor): > 10 µM
- Ki [4]: 0.93 µM
